How the values were obtained:
Assay in all cases: relative viability (nuclei count vs DMSO), 5 days (fraction); higher = more cells survive
BGJ398 + Navitoclax = compound: CCN1CCN(c2ccc(Nc3cc(N(C)C(=O)Nc4c(Cl)c(OC)cc(OC)c4Cl)ncn3)cc2)CC1 [BGJ398] + CC1(C)CCC(c2ccc(Cl)cc2)=C(CN2CCN(c3ccc(C(=O)NS(=O)(=O)c4ccc(N[C@H](CCN5CCOCC5)CSc5ccccc5)c(S(=O)(=O)C(F)(F)F)c4)cc3)CC2)C1 [Navitoclax] (partner 0.5 µM)
Procedure, shortened: (§1)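 Values are medians from duplicate plates. Each reflects relative viability, defined as the nuclei count of treated wells over that of vehicle wells. Lung cancer cell lines in 1536-well plates were pin-tool dosed one day after seeding with one drug alone or with a fixed anchor-drug dose plus five library-drug doses (not always all listed) in √10 steps, then fixed, stained and imaged at 4× after 5 days.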

BGJ398 + Palbociclib = compound: CCN1CCN(c2ccc(Nc3cc(N(C)C(=O)Nc4c(Cl)c(OC)cc(OC)c4Cl)ncn3)cc2)CC1 [BGJ398] + CC(=O)c1c(C)c2cnc(Nc3ccc(N4CCNCC4)cn3)nc2n(C2CCCC2)c1=O [Palbociclib] (partner 0.5 µM)
Procedure, shortened: as §1

BGJ398 + Linsitinib = compound: CCN1CCN(c2ccc(Nc3cc(N(C)C(=O)Nc4c(Cl)c(OC)cc(OC)c4Cl)ncn3)cc2)CC1 [BGJ398] + C[C@]1(O)C[C@@H](c2nc(-c3ccc4ccc(-c5ccccc5)nc4c3)c3c(N)nccn32)C1 [Linsitinib] (partner 1 µM)
Procedure, shortened: as §1

[1] = compound: C1=CC2=NC=CN=C2C=C1/C=C/3\C(=O)NC(=O)S3 + Cc1cc(Nc2cc(N3CCN(C)CC3)nc(Sc3ccc(NC(=O)C4CC4)cc3)n2)n[nH]1 [Tozasertib] (partner 0.1 µM)
Procedure, shortened: as §1

Cell Line | relative viability (BGJ398 + Navitoclax; first compound 0.01 µM) | relative viability (BGJ398 + Navitoclax; first compound 0.03162 µM) | relative viability (BGJ398 + Navitoclax; first compound 0.1 µM) | relative viability (BGJ398 + Navitoclax; first compound 0.3162 µM) | relative viability (BGJ398 + Navitoclax; first compound 1 µM) | relative viability (BGJ398 + Palbociclib; first compound 0.01 µM) | relative viability (BGJ398 + Palbociclib; first compound 0.03162 µM) | relative viability (BGJ398 + Palbociclib; first compound 0.1 µM) | relative viability (BGJ398 + Palbociclib; first compound 0.3162 µM) | relative viability (BGJ398 + Palbociclib; first compound 1 µM) | relative viability (BGJ398 + Linsitinib; first compound 0.01 µM) | relative viability (BGJ398 + Linsitinib; first compound 0.03162 µM) | relative viability (BGJ398 + Linsitinib; first compound 0.1 µM) | relative viability (BGJ398 + Linsitinib; first compound 0.3162 µM) | relative viability (BGJ398 + Linsitinib; first compound 1 µM) | relative viability ([1]; first compound 0.02 µM) | relative viability ([1]; first compound 0.06325 µM) | relative viability ([1]; first compound 0.2 µM) | relative viability ([1]; first compound 0.6325 µM) | relative viability ([1]; first compound 2 µM)
SK-MES-1 | 1.27 | 1.32 | 1.24 | 1.33 | 1.24 | 0.324 | 0.328 | 0.303 | 0.331 | 0.308 | 1.01 | 1.12 | 1.09 | 1.01 | 1.11 | 0.894 | 0.884 | 0.998 | 0.965 | 0.934
NCI-H1437 | 1.1 | 1.12 | 1.07 | 1.08 | 1.06 | 0.383 | 0.309 | 0.323 | 0.337 | 0.278 | 0.999 | 0.995 | 1.04 | 1.05 | 1.06 | 0.404 | 0.388 | 0.388 | 0.418 | 0.323
LU99A | 0.769 | 0.755 | 0.696 | 0.724 | 0.512 | 0.426 | 0.442 | 0.438 | 0.392 | 0.364 | 0.524 | 0.47 | 0.575 | 0.51 | 0.441 | 0.264 | 0.284 | 0.238 | 0.308 | 0.251
HCC-827 | 0.935 |  | 1.03 | 1.02 | 1.02 | 0.26 |  | 0.469 | 0.45 | 0.518 | 0.95 |  | 0.872 | 0.942 | 0.989 | 0.403 | 0.446 | 0.417 | 0.38 | 0.472
LK-2 | 0.72 | 0.733 | 0.726 | 0.529 | 0.317 | 0.638 | 0.862 | 0.489 | 0.336 | 0.191 | 0.519 | 0.438 | 0.242 | 0.214 | 0.171 | 0.174 | 0.189 | 0.159 | 0.191 | 0.165
HCC-366 | 1.01 | 1.18 | 0.995 | 1.02 | 1.1 | 0.435 | 0.415 | 0.422 | 0.388 | 0.476 | 0.743 | 0.736 | 0.699 | 0.801 | 0.784 | 0.114 |  | 0.135 | 0.108 | 0.123
BEN | 0.0852 | 0.15 | 0.0576 | 0.0618 | 0.0501 | 0.522 | 0.457 | 0.43 | 0.481 | 0.401 | 0.935 | 0.95 | 0.89 | 0.818 | 0.798 | 0.525 | 0.446 | 0.551 | 0.517 | 0.683
NCI-H23 | 0.874 | 0.765 | 0.848 | 0.896 | 0.865 | 0.471 | 0.601 | 0.591 | 0.471 | 0.475 | 0.582 | 0.597 | 0.564 | 0.568 | 0.48 | 0.337 | 0.314 | 0.363 | 0.401 | 0.329
NCI-H1395 | 1.08 | 1.36 | 1.13 | 0.996 | 0.848 | 0.603 | 0.587 | 0.464 | 0.458 | 0.481 | 1.15 | 1.24 | 0.977 | 0.939 | 0.797 | 0.725 | 0.794 | 0.777 | 0.729 | 0.809
201T | 1.33 | 1.19 | 1.2 | 1.2 | 1.17 | 0.387 | 0.358 | 0.356 | 0.349 | 0.268 | 1.17 | 1.08 | 1.07 | 1.06 | 1.01 | 0.8 | 0.922 | 0.917 | 0.873 | 0.854
NCI-H460 | 1.01 | 1.11 | 1.4 | 1.12 | 1.33 | 0.209 | 0.169 | 0.118 | 0.206 | 0.0801 | 0.714 | 0.838 | 0.916 | 0.895 | 0.92 | 0.411 | 0.262 | 0.441 | 0.392 | 0.395
HCC-15 | 0.723 | 0.75 | 0.747 | 0.734 | 0.769 | 0.713 | 0.743 | 0.79 | 0.769 | 0.753 | 0.981 | 0.968 | 0.921 | 0.981 | 0.936 | 0.374 | 0.333 | 0.303 | 0.393 | 0.49
NCI-H441 | 0.577 | 0.795 | 0.501 | 0.604 | 0.722 |  | 0.186 | 0.213 | 0.25 | 0.183 | 0.526 | 0.569 | 0.7 | 0.486 | 0.484 | 0.661 | 0.828 | 0.743 | 0.62 | 0.366
EPLC-272H | 1.04 | 0.989 | 1.16 | 1.01 | 1.09 | 0.32 | 0.314 | 0.324 | 0.359 | 0.358 | 1.16 | 1.16 | 1.2 | 1 | 1.22 | 0.263 | 0.253 | 0.254 | 0.259 | 0.175
